Data: publication PMC12445474, “Conservation of heat stress acclimation by the IPK2-type kinases that control the synthesis of the inositol pyrophosphate 4/6-InsP7 in land plants” (PLOS Genetics, 2025)
Values belong to the molecule of their own block, whether it stands above or below them.

Experiments:
MpIPMK [1] = molecular target: T1, MpIPMK (Marchantia polymorpha, UniProt A0A2R6WAL0); assay: in vitro kinase assay, PAGE and CE-MS of products; type: biochemical; settings: 12.5 mM ATP, 10 nmol InsP6, 5 mM MgCl2, 20 mM HEPES pH 7.5, 1 mM DTT, 37 °C, 12 h
T1 construct: gene MARPO_0118s0021; full-length CDS in pET28b, N-terminal His8-MBP fusion, E. coli, Ni-NTA purified in PBS; tag kept

AtIPK2α = molecular target: T2, AtIPK2α (Arabidopsis thaliana, UniProt Q9LY23); assay: isothermal titration calorimetry; type: binding
T2 construct: gene IPK2a; full-length CDS in pET28b, N-terminal His8-MBP-TEV, E. coli BL21 (RIL); tag removed by TEV for ITC, His8-MBP fusion for kinase assays
T2 sequence (Q9LY23 1-286): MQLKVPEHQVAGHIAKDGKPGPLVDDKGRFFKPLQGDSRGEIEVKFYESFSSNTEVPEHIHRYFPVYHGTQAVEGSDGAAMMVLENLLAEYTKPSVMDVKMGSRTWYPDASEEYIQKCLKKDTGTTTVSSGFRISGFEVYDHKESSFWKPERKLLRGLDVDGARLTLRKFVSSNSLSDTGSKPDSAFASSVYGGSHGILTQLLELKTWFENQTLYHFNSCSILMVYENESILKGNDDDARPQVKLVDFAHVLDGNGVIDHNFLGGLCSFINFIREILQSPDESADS

AtIPK2β [2] = molecular target: T3, AtIPK2β (Arabidopsis thaliana, UniProt Q9FLT2); assay: isothermal titration calorimetry; type: binding
T3 construct: gene IPK2b; full-length CDS in pET28b, N-terminal His8-MBP-TEV, E. coli BL21 (RIL); tag removed by TEV for ITC, His8-MBP fusion for kinase assays
T3 sequence (Q9FLT2 1-300): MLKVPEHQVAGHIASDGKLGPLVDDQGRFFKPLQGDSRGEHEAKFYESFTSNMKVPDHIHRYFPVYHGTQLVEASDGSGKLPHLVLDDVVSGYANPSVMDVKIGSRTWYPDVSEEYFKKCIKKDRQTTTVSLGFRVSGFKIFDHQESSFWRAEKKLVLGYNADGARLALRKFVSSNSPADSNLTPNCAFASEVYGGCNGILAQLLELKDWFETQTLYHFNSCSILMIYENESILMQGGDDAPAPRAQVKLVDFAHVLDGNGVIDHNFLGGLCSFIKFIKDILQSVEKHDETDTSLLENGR

AtHSFA1b [3] = molecular target: T4, AtHSFA1b (Arabidopsis thaliana, UniProt O81821 1-481); assay: EMSA; 50-200 nM protein, 250 nM probe; EMSA: 250 nM FAM probe, 15 min on ice (30 min pre-incubation with partner or InsP), 6% native PAGE; binding buffer not stated (proteins purified in PBS pH 7.4); settings: protein: recombinant; tags: N-terminal His8-MBP; chain copies: 3; label: 5' FAM on strand 1; 5' overhang 4 nt at both ends, 18 bp duplex
AtIPK2β [4] = molecular target: T5, AtIPK2β (Arabidopsis thaliana (Col-0), UniProt Q9FLT2 1-300); assay: as above; settings: protein: recombinant; tags: N-terminal His8-MBP-TEV; label: 5' FAM on strand 1; 5' overhang 4 nt at both ends, 26 bp duplex
T5 sequence: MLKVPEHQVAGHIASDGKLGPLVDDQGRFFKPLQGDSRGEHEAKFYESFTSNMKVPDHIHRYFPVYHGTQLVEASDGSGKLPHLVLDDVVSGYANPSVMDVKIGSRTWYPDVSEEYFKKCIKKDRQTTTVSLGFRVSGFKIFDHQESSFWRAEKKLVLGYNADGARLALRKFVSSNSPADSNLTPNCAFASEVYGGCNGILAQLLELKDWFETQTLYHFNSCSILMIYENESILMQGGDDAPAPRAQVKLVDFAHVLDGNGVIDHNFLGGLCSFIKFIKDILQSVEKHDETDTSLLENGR

MpIPMK [5] = molecular target: T6, MpIPMK (Marchantia polymorpha (Tak-1), UniProt A0A2R6WAL0 1-319); assay: as above; settings: protein: recombinant; tags: N-terminal His8-MBP; label: 5' FAM on strand 1; 5' overhang 4 nt at both ends, 26 bp duplex
T6 sequence: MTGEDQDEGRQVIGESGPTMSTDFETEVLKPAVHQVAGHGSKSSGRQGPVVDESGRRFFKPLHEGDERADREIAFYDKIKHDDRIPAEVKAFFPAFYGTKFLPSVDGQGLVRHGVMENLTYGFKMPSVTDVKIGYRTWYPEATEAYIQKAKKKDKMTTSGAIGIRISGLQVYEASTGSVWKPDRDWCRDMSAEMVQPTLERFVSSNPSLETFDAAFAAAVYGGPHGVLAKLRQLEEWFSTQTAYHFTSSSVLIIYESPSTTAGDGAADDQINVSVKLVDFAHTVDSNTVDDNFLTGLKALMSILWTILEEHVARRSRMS

AtHSFA1b [6] = molecular target: T4, AtHSFA1b; assay: EMSA; 25-200 nM protein, 250 nM probe; EMSA: 250 nM FAM probe, 15 min on ice (30 min pre-incubation with partner or InsP), 6% native PAGE; binding buffer not stated (proteins purified in PBS pH 7.4); settings: protein: recombinant; tags: N-terminal His8-MBP; chain copies: 3; label: 5' FAM on strand 1; 5' overhang 4 nt at both ends, 26 bp duplex

T4 sequence (O81821 whole entry): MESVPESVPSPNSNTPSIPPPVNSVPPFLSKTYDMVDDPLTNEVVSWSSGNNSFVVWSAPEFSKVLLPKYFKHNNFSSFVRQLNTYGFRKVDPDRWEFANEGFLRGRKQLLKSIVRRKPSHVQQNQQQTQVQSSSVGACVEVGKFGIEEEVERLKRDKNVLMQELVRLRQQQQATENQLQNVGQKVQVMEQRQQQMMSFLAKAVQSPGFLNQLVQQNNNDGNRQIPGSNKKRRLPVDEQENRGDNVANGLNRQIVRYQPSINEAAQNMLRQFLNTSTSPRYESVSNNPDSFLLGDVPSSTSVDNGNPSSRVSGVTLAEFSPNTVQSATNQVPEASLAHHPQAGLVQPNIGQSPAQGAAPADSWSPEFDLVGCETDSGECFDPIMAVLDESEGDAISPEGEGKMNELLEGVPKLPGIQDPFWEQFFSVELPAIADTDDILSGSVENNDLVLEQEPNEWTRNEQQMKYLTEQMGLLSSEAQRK

B1: HSE∆ (dsDNA)
DNA 1: CTCGGTCGATCGATGCATGATG
DNA 2: AAACCATCATGCATCGATCGAC
binding result (AtHSFA1b [3]): no binding

B2: FAM-HSE (AtHSP18.1 promoter element) (dsDNA)
DNA 1: CTCGGTCGATCGAGAAGCTTCTGCATGATG
DNA 2: AAACCATCATGCAGAAGCTTCTCGATCGAC
binding result (AtIPK2β [4]): no binding | binding result (MpIPMK [5]): no binding | binding result (AtHSFA1b [6]): binds

More lines, main results first:

Kd (AtIPK2α): ~2 µM | Kd (AtIPK2β [2]): ~0.5 µM
Molecule: O=P(O)(O)O[C@H]1[C@H](OP(=O)(O)O)[C@@H](OP(=O)(O)O)[C@H](OP(=O)(O)O)[C@@H](OP(=O)(O)O)[C@H]1OP(=O)(O)O [InsP6]
kinase activity (MpIPMK [1]): demonstrating that MpIPMK phosphorylates InsP6 in vitro

Kd (AtIPK2α): ~7 µM | Kd (AtIPK2β [2]): ~6 µM
Molecule: O=P(O)(O)O[C@@H]1[C@H](O)[C@H](O)[C@@H](OP(=O)(O)O)[C@H](OP(=O)(O)O)[C@H]1O [Ins(1,4,5)P3]
